Assay results reported in patent US20190054057A1, “IMMUNE BOOSTING DIETARY COMPOUNDS FOR DISEASE CONTROL AND PREVENTION” (THE BOARD OF REGENTS FOR OKLAHOMA STATE UNIVERSITY OFFICE …, priority 2016, published 2019).
Where a SMILES comes first, the peptide text is derived from it. The star is where a group is joined. Cbz = O=C(OCc1ccccc1)*

Key:
Type in all cases: cell-based
AvBD9 [1] = experiment: AvBD9 gene expression in chicken HD11 macrophage cells (real-time RT-PCR); conditions: for Induction of AvBD9 gene expression: compound alone, different concentrations; for Effect of pathway inhibitor on lactose-induced AvBD9 expression: 1 h inhibitor pretreatment, then 0.2 M lactose 24 h; for Efficacy of AvBD9 induction compared with butyrate: 24 h stimulation; for Induction of AvBD9 gene expression by sugars: 0.2 M, up to 48 h; for Synergy with butyrate in AvBD9 induction: 2 mM butyrate with 0.2 M sugar, 12 h
Experimental: (§1) Chicken HD11 macrophage cell line was obtained from USDA-Agricultural Research Services (ARS), and chicken HTC macrophage cell line was secured from USDA-ARS. Both HD11 and HTC macrophage cells were propagated in RPMI 1640 containing 10% fetal bovine serum (FBS), 100 μg/ml streptomycin, and 100 U/ml penicillin. Peripheral blood mononuclear cells (PBMCs) were isolated from EDTA-anticoagulated chicken blood by gradient centrifugation with Histopaque 1077 (Sigma) following manufacturer's instructions. Briefly, chicken blood was overlaid onto Histopaque 1077 (Sigma) at 1:1 ratio, and centrifuged at 400×g for 30 min. Interphase containing PBMCs was aspirated and washed 3 times with PBS at 250×g for 10 min. Cell pellet was re-suspended with RPMI 1640, supplemented with 10% FBS, 100 μg/ml streptomycin, 100 U/ml penicillin, and 20 mM HEPES. After being seeded overnight at 2×10^6/well in 6-well tissue culture plates, cells were treated with different concentrations of chemicals. For signaling studies, cells were pre-treated with different signaling agonists or inhibitors for 1 h, followed by stimulation with sodium butyrate or its structural analogs for another 24 h. Cells were then lysed in RNAzol (Molecular Research Center, Cincinnati, Ohio) for RNA extraction.
(§2) Total RNA was extracted from chicken cells and tissues using RNAzol RT (Molecular Research Center) and quantitated using Nanodrop 1000 (Nanodrop Products, Wilmington, Del.). RNA (0.3 μg) was reverse transcribed in 4-μl reactions using Maxima First Strand cDNA Synthesis Kit (Thermo Fisher Scientific, Pittsburgh, Pa.) according to the manufacturer's instructions. The cDNA was then diluted 10 times with RNase-free water prior to real-time PCR analysis of AvBD9 and GAPDH as were described previously. The primers used for AvBD9 primers were […] (SEQ ID NO: 1, forward) and […] (SEQ ID NO: 2, reverse), whereas the primers for chicken glyceraldehyde-3-phosphate dehydrogenase (GAPDH) were […] (SEQ ID NO: 3, forward) and […] (SEQ ID NO: 4, reverse). QuantiTect SYBR Green PCR Kit (Qiagen, Valencia, Calif.) was used in 10 μl reactions with 4 and 1 μl of diluted cDNA for AvBD9 and GAPDH, respectively. Real-time PCR was performed with an initial activation at 95° C. for 10 min, followed by 40 cycles at 94° C. for 15 sec, 55° C. for 20 sec and 72° C. for 30 sec. Melting curve analysis was carried out to confirm the specificity of PCR amplification. Relative fold change in the AvBD9 gene expression was calculated using the ΔΔCt method normalized against the GAPDH levels.

AvBD9 [2] = experiment: AvBD9 gene expression in chicken peripheral blood mononuclear cells (PBMCs) (real-time RT-PCR); conditions: for Effect of pathway inhibitor on butyrate-induced AvBD9 expression: 1 h inhibitor pretreatment, then 2 mM sodium butyrate 24 h; for Effect on AvBD9 induction, compound alone: without butyrate; for AvBD9 gene expression, maximum fold increase, compound alone: 50 to 250 μM, dose-dependent
Experimental: as §1, §2

AvBD9 [3] = experiment: as above; conditions: 1 h inhibitor pretreatment, then 10 μM quercetin 24 h
AvBD9 [4] = experiment: AvBD9 gene expression in chicken jejunal explants (real-time RT-PCR); conditions: 2 mM butyrate and/or 0.1 M lactose, 24 h
Experimental: A segment of chicken jejunum was harvested from 1- to 2-week-old broiler chickens, washed thoroughly in cold PBS containing 100 μg/ml of gentamicin, 100 U/ml penicillin, and 100 μg/ml streptomycin, and then cut into a series of 0.5-cm-long segments. Jejunal segments were placed individually in 6-well plates and cultured in 4 ml RPMI 1640 containing 10% FBS, 20 mM HEPES, 100 U/ml penicillin, 100 μg/ml streptomycin, and 100 μg/ml gentamicin. […] Jejunal segments were homogenized in RNAzol RT for RNA extraction.
(§3) The cDNA was then diluted 10 times with RNase-free water prior to real-time PCR analysis of AvBD9 and GAPDH as were described previously. The primers used for AvBD9 primers were […] (SEQ ID NO: 1, forward) and […] (SEQ ID NO: 2, reverse), whereas the primers for chicken glyceraldehyde-3-phosphate dehydrogenase (GAPDH) were […] (SEQ ID NO: 3, forward) and […] (SEQ ID NO: 4, reverse). QuantiTect SYBR Green PCR Kit (Qiagen, Valencia, Calif.) was used in 10 μl reactions with 4 and 1 μl of diluted cDNA for AvBD9 and GAPDH, respectively.

acetyl-histone 4 (Ac-H4) = experiment: Histone 4 acetylation in chicken HD11 cells (immunoblotting, Ac-H4); conditions: 2 mM butyrate and/or 0.2 M lactose, 6 h
Experimental: After stimulation with various compounds, chicken HD11 cells were washed with PBS and lysed in the RIPA lysis buffer (Santa Cruz Biotechnology, Dallas, Tex.). Protein concentration was measured by the Bradford Assay (Bio-Rad, Hercules, Calif.). For the determination of histone 4 acetylation levels, 20 μg of proteins was separated by 12.5% SDS-PAGE gel and then transferred to a PVDF membrane. After overnight blocking in the blocking buffer at 4° C., the membrane was incubated with a primary rabbit antibody against acetyl-histone 4 (Ac-H4) (Cell Signaling, #8647) in the blocking buffer for 1 h at room temperature. After three washes, the membrane was incubated with an alkaline phosphatase-conjugated goat anti-rabbit IgG antibody (Sigma-Aldrich, St. Louis, Mo.) for 45 min at room temperature. Another membrane was prepared in parallel, but incubated with a rabbit antibody against β-Actin (#A2103) to reveal a similar amount of protein loading. The signaling was visualized by incubation with the ECL reagent (Santa Cruz Biotechnology).

AvBD9 [5] = experiment: AvBD9 gene expression in chicken HTC macrophage cells (real-time RT-PCR)
Experimental: For signaling studies, cells were pre-treated with different signaling agonists or inhibitors for 1 h, followed by stimulation with sodium butyrate or its structural analogs for another 24 h.
as §3

CN(C)c1ccc(C(=O)NCCCCCC(=O)NO)cc1 [CAY10398, reference compound]
Induction of AvBD9 gene expression (AvBD9 [1]; 24 h): dose-dependent stimulation

C[C@H]1O[C@@H](n2cnc3c(N)ncnc32)C[C@@H]1O [DDA, 2′-5′-dideoxyadenosine]
Effect of pathway inhibitor on butyrate-induced AvBD9 expression (AvBD9 [2]): strikingly strong, dose-dependent increase

CC(C)C[C@@H](C=O)NC(=O)[C@H](CC(C)C)NC(=O)[C@H](CC(C)C)NC(=O)OCc1ccccc1 [MG132] (Cbz-Leu-Leu-Leu-aldehyde)
Effect of pathway inhibitor on butyrate-induced AvBD9 expression (AvBD9 [2]): nearly complete abolishment

COc1cccc(-c2cc(=O)c3ccccc3o2)c1N [PD98059, reference compound]
Effect of pathway inhibitor on lactose-induced AvBD9 expression (AvBD9 [1]): synergized substantially | Effect of pathway inhibitor on butyrate-induced AvBD9 expression (AvBD9 [2]): strong synergistic AvBD9 induction

S=C(S)N1CCCC1 [PDTC]
Effect of pathway inhibitor on quercetin-mediated AvBD9 expression (AvBD9 [3]): did not show much effect

Nc1ccc2ncnc(NCCc3ccc(Oc4ccccc4)cc3)c2c1 [QNZ, reference compound]
Effect of pathway inhibitor on lactose-induced AvBD9 expression (AvBD9 [1]): no influence

O=C(CCCCCCC(=O)Nc1ccccc1)NO [SAHA, suberoylanilide hydroxamic acid, reference compound]
Induction of AvBD9 gene expression (AvBD9 [1]; 24 h): dose-dependent stimulation

C[S+]([O-])c1ccc(-c2nc(-c3ccncc3)c(-c3ccc(F)cc3)[nH]2)cc1 (centres unmarked) [SB203580, reference compound]
Effect of pathway inhibitor on lactose-induced AvBD9 expression (AvBD9 [1]): no influence | Effect of pathway inhibitor on butyrate-induced AvBD9 expression (AvBD9 [2]): substantial, but not complete reduction

Nc1ncnc2c1ncn2C1CCCO1 (centres unmarked) [SQ22536, reference compound]
Effect of pathway inhibitor on lactose-induced AvBD9 expression (AvBD9 [1]): no influence

CCCCCCCCCCCCCCCc1cccc(O)c1C(=O)O [anacardic acid]
Effect on AvBD9 induction, compound alone (AvBD9 [2]): modest effect

CCCC(=O)OCc1ccccc1 [benzyl butyrate, Benzyl butyrate]
Efficacy of AvBD9 induction compared with butyrate (AvBD9 [1]): comparable efficacy to butyrate | Induction of AvBD9 gene expression (AvBD9 [1]; 24 h): dose-dependently induced

CCCC(=O)[O-].[Na+] [butyrate, Sodium butyrate]
AvBD9 induction, peak fold (AvBD9 [1]; 2 mM butyrate alone, 24 h): approximately 1,750 fold | AvBD9 induction, fold (AvBD9 [4]): 100 fold | Histone 4 acetylation (acetyl-histone 4 (Ac-H4)): minimum histone 4 acetylation

CCCC(=O)Nc1ncnc2c1ncn2[C@@H]1O[C@@H]2COP(=O)(O)O[C@H]2[C@H]1OC(=O)CCC [dibutyryl cAMP, reference compound]
Efficacy of AvBD9 induction compared with butyrate (AvBD9 [1]): comparable efficacy to butyrate | Induction of AvBD9 gene expression (AvBD9 [1]; 24 h): dose-dependently induced

O=C(CO)[C@@H](O)[C@H](O)[C@H](O)CO [fructose]
Induction of AvBD9 gene expression by sugars (AvBD9 [1]): stimulated AvBD9 gene expression in a time-dependent manner

O=C[C@H](O)[C@@H](O)[C@@H](O)[C@H](O)CO [galactose]
Synergy with butyrate in AvBD9 induction (AvBD9 [1]): clear synergy | Induction of AvBD9 gene expression by sugars (AvBD9 [1]): stimulated AvBD9 gene expression in a time-dependent manner

C=C(C)[C@@H](CC=C(C)C)C[C@@]12C[C@@H](CC=C(C)C)C(C)(C)[C@@](CC=C(C)C)(C(=O)C(C(=O)c3ccc(O)c(O)c3)=C1O)C2=O [garcinol]
AvBD9 induction, peak fold increase, compound alone (AvBD9 [2]; garcinol without butyrate): approximately 7 fold

CCCC(=O)OCC(COC(=O)CCC)OC(=O)CCC [glyceryl tributyrate, Glyceryl tributyrate]
Efficacy of AvBD9 induction compared with butyrate (AvBD9 [1]): comparable efficacy to butyrate | Induction of AvBD9 gene expression (AvBD9 [1]; 24 h): dose-dependently induced

O=C(O)CCc1ccccc1 [hydrocinnamic acid, Hydrocinnamic acid]
Induction of AvBD9 gene expression (AvBD9 [1]; 24 h): dose-dependently induced

OC[C@H]1O[C@@H](O[C@H]2[C@H](O)[C@@H](O)C(O)O[C@@H]2CO)[C@H](O)[C@@H](O)[C@H]1O (some centres unmarked) [lactose]
AvBD9 induction, maximum fold (AvBD9 [1]; 0.2 M lactose alone, 6 h): 350 fold | Induction of AvBD9 gene expression by sugars (AvBD9 [1]): stimulated AvBD9 gene expression in a time-dependent manner | AvBD9 induction, fold (AvBD9 [4]): 15 fold | Histone 4 acetylation (acetyl-histone 4 (Ac-H4)): no impact

OC[C@@H](O)[C@@H](O)[C@H](O)[C@H](O)CO [mannitol]
Synergy with butyrate in AvBD9 induction (AvBD9 [1]): comparably synergy

O=C(O)c1cccnc1Nc1cccc(C(F)(F)F)c1 [niflumic acid]
AvBD9 gene expression, maximum fold increase, compound alone (AvBD9 [2]): ~14,000 fold

CS(=O)(=O)Nc1ccc([N+](=O)[O-])cc1Oc1ccccc1 [nimesulide]
AvBD9 gene expression, maximum fold increase, compound alone (AvBD9 [2]): approximately 70 fold

O=c1c(O)c(-c2ccc(O)c(O)c2)oc2cc(O)cc(O)c12 [quercetin]
Reduction of AvBD9 induction at 48 h relative to 24 h (AvBD9 [5]; 40 μM quercetin): 210 fold | AvBD9 expression, fold increase at peak (AvBD9 [5]; 40 μM quercetin, 24 h): approximately 500 fold | Concentration giving peak AvBD9 response (AvBD9 [5]; quercetin alone, 24 h): 40 µM | Induction of AvBD9 gene expression (dose dependence) (AvBD9 [5]; quercetin alone, 24 h): dose-dependent induction | AvBD9 expression, fold increase (AvBD9 [2]; 40 μM quercetin alone, 24 h): approximately 6,500 fold | Induction of AvBD9 (dose dependence) (AvBD9 [2]; quercetin alone, 24 h): dose-dependently induced

Oc1ccc(C=Cc2cc(O)cc(O)c2)cc1 [resveratrol]
Effect on AvBD9 induction, compound alone (AvBD9 [2]): modest effect

CCCC(CCC)C(=O)[O-].[Na+] [sodium valproate, reference compound]
Induction of AvBD9 gene expression (AvBD9 [1]; 24 h): dose-dependent stimulation

CCCC(=O)OC/C=C/c1ccccc1 [trans-cinnamyl butyrate]
Induction of AvBD9 gene expression (AvBD9 [1]; 24 h): dose-dependently induced

OC[C@H]1O[C@H](O[C@H]2O[C@H](CO)[C@@H](O)[C@H](O)[C@H]2O)[C@H](O)[C@@H](O)[C@@H]1O [trehalose]
Synergy with butyrate in AvBD9 induction (AvBD9 [1]): clear synergy

CC(/C=C/C(=O)NO)=C\[C@@H](C)C(=O)c1ccc(N(C)C)cc1 [trichistatin A, reference compound]
Induction of AvBD9 gene expression (AvBD9 [1]; 24 h): dose-dependent stimulation
